Numbering of substitutions follows the chain as printed. Names may count otherwise.
T1: 6His-3FLAG-Cdc14 (Saccharomyces cerevisiae, UniProt Q00684)
T1 sequence (Q00684 1-551): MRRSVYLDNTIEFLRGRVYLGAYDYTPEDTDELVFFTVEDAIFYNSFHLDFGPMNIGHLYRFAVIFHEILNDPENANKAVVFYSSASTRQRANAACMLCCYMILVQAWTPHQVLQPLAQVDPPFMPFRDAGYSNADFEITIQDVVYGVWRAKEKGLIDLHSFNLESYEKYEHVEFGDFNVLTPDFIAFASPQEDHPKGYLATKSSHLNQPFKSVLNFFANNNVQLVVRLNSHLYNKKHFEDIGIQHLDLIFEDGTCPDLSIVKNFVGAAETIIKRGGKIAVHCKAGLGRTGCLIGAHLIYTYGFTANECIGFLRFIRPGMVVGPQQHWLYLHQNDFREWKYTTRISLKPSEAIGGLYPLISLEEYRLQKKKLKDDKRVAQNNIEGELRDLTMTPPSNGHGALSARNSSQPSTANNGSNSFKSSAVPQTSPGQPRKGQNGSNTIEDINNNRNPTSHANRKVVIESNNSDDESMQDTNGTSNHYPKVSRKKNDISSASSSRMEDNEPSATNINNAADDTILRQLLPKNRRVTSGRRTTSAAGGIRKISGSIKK

T2: 3HA-Atg13-p PxL2m (S. cerevisiae, UniProt Q06628 1-738, PxL2m (A207-IG), phosphorylated (Atg13-p); residues not stated)
T2 sequence (looked up): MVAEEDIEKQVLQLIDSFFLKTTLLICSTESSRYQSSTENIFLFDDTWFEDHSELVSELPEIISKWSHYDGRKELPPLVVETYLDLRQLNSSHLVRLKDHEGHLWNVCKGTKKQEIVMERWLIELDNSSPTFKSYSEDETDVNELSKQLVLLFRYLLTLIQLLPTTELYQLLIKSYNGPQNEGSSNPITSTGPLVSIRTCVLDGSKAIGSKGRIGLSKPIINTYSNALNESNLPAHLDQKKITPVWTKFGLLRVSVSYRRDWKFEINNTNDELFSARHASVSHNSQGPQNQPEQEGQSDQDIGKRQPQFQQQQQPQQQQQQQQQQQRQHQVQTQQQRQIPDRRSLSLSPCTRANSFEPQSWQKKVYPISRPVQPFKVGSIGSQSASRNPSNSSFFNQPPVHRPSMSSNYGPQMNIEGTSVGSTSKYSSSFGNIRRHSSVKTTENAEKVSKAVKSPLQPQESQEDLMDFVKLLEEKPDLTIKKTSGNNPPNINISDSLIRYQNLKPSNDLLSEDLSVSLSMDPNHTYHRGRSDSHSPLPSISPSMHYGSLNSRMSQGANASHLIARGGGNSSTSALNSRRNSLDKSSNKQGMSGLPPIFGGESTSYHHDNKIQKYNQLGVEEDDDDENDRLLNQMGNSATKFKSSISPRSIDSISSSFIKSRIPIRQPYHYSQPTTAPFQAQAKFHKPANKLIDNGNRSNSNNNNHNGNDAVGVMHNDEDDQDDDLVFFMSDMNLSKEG

B1: 6His-3FLAG-Cdc14-C283S (enzyme, S. cerevisiae, UniProt Q00684 1-551, looked up)
chain: T1 sequence (Q00684 1-551) with C283S

What was measured:
[1] = target: T1, 6His-3FLAG-Cdc14; assay: colorimetric p-nitrophenolate release, absorbance at […] nm; assay type: biochemical; details: 10 mM pNPP, 20 mM Tris pH 7.5, 4 mM MgCl2, 1 mM EGTA, room temperature
[2] = target: T2, 3HA-Atg13-p PxL2m; assay: pull-down

Molecule | colorimetric p-nitrophenolate release, absorbance at 405 nm [1] | binding result [2]
O=[N+]([O-])c1ccc(OP(=O)(O)O)cc1 [p-nitrophenyl phosphate] | 6His-3FLAG-Cdc14 exhibited concentration- and time-dependent phosphatase activity | 
B1 |  | binds
